Test results as given in PubChem BioAssay AID1259407 (Chemical Carcinogenesis Research Information System (CCRIS), 2018).
Activity calls are given as the source filed them. The rule behind the calls is not given here.

System: CCRIS mutagenicity, Ames/micronucleus/aberration tests
Assay: CCRIS mutagenicity studies

Nc1ccc2cc3ccccc3cc2c1
mutagenic call (Test System: AMES SALMONELLA TYPHIMURIUM, Strain/Indicator: NM2000, Metabolic Activation: RAT, LIVER, S-9, AROCLOR 1254, Method: PREINCUBATION): active; positive | mutagenic call (Test System: AMES SALMONELLA TYPHIMURIUM, Strain/Indicator: NM2009, Metabolic Activation: RAT, LIVER, S-9, AROCLOR 1254, Method: PREINCUBATION): active; positive | mutagenic call (Test System: AMES SALMONELLA TYPHIMURIUM, Strain/Indicator: TA97, Metabolic Activation: NONE, Method: STANDARD PLATE): inactive; negative | mutagenic call (Test System: AMES SALMONELLA TYPHIMURIUM, Strain/Indicator: TA97, Metabolic Activation: RAT, LIVER, S-9, AROCLOR 1254, Method: STANDARD PLATE): active; positive | mutagenic call (Test System: AMES SALMONELLA TYPHIMURIUM, Strain/Indicator: TA97A, Metabolic Activation: RAT, LIVER, S-9, AROCLOR 1254, Method: STANDARD PLATE): active; positive | mutagenic call (Test System: AMES SALMONELLA TYPHIMURIUM, Strain/Indicator: TA98 (1,8-DNP6), Metabolic Activation: RAT LIVER, CYTOSOL, AROCLOR 1254, Method: STANDARD PLATE): active; positive | mutagenic call (Test System: AMES SALMONELLA TYPHIMURIUM, Strain/Indicator: TA98 (1,8-DNP6), Metabolic Activation: RAT LIVER, MICROSOMES, AROCLOR 1254, Method: STANDARD PLATE): active; positive | mutagenic call (Test System: AMES SALMONELLA TYPHIMURIUM, Strain/Indicator: TA98, Metabolic Activation: FERRET, LIVER, CYTOSOL, Method: STANDARD PLATE): inactive; negative | mutagenic call (Test System: AMES SALMONELLA TYPHIMURIUM, Strain/Indicator: TA98, Metabolic Activation: FERRET, LIVER, MICROSOMES, Method: STANDARD PLATE): active; positive | mutagenic call (Test System: AMES SALMONELLA TYPHIMURIUM, Strain/Indicator: TA98, Metabolic Activation: HAMSTER, LIVER, CYTOSOL, Method: STANDARD PLATE): inactive; negative | mutagenic call (Test System: AMES SALMONELLA TYPHIMURIUM, Strain/Indicator: TA98, Metabolic Activation: HAMSTER, LIVER, MICROSOMES, Method: STANDARD PLATE): active; positive | mutagenic call (Test System: AMES SALMONELLA TYPHIMURIUM, Strain/Indicator: TA98, Metabolic Activation: HUMAN, LIVER, CYTOSOL, Method: STANDARD PLATE): active; positive | mutagenic call (Test System: AMES SALMONELLA TYPHIMURIUM, Strain/Indicator: TA98, Metabolic Activation: HUMAN, RED BLOOD CELL, CYTOSOL, Method: PREINCUBATION): active; positive | mutagenic call (Test System: AMES SALMONELLA TYPHIMURIUM, Strain/Indicator: TA98, Metabolic Activation: NONE, Method: SPIRAL ASSAY): inactive; negative | mutagenic call (Test System: AMES SALMONELLA TYPHIMURIUM, Strain/Indicator: TA98, Metabolic Activation: PIG, LIVER, CYTOSOL, Method: STANDARD PLATE): inactive; negative | mutagenic call (Test System: AMES SALMONELLA TYPHIMURIUM, Strain/Indicator: TA98, Metabolic Activation: PIG, LIVER, MICROSOMES, Method: STANDARD PLATE): active; positive | mutagenic call (Test System: AMES SALMONELLA TYPHIMURIUM, Strain/Indicator: TA98, Metabolic Activation: RAT LIVER, CYTOSOL, AROCLOR 1254, Method: STANDARD PLATE): active; positive | mutagenic call (Test System: AMES SALMONELLA TYPHIMURIUM, Strain/Indicator: TA98, Metabolic Activation: RAT LIVER, MICROSOMES, AROCLOR 1254, Method: STANDARD PLATE): active; positive | mutagenic call (Test System: AMES SALMONELLA TYPHIMURIUM, Strain/Indicator: TA98, Metabolic Activation: RAT, LIVER, CYTOSOL, Method: STANDARD PLATE): inactive; negative | mutagenic call (Test System: AMES SALMONELLA TYPHIMURIUM, Strain/Indicator: TA98, Metabolic Activation: RAT, LIVER, MICROSOMES, Method: STANDARD PLATE): active; positive | mutagenic call (Test System: AMES SALMONELLA TYPHIMURIUM, Strain/Indicator: TA98, Metabolic Activation: RAT, LIVER, S-9, AROCLOR 1254 (0.5, 1, 2 OR 4%), Method: STANDARD PLATE): active; positive | mutagenic call (Test System: AMES SALMONELLA TYPHIMURIUM, Strain/Indicator: TA98, Metabolic Activation: RAT, LIVER, S-9, AROCLOR 1254, Method: SPIRAL ASSAY): active; positive | mutagenic call (Test System: AMES SALMONELLA TYPHIMURIUM, Strain/Indicator: TA98, Metabolic Activation: RAT, LIVER, S-9, AROCLOR 1254 OR PHENOBARBITOL, Method: STANDARD PLATE): active; positive | mutagenic call (Test System: AMES SALMONELLA TYPHIMURIUM, Strain/Indicator: TA98, Metabolic Activation: RAT, LIVER, S-9, PHENOBARBITAL, Method: STANDARD PLATE): active; positive | mutagenic call (Test System: AMES SALMONELLA TYPHIMURIUM, Strain/Indicator: TA100, Metabolic Activation: MOUSE, LIVER, MICROSOMES, BENZO[E]PYRENE AND TCDD, Method: STANDARD PLATE): active; positive | mutagenic call (Test System: AMES SALMONELLA TYPHIMURIUM, Strain/Indicator: TA100, Metabolic Activation: NONE, Method: SPIRAL ASSAY): inactive; negative | mutagenic call (Test System: AMES SALMONELLA TYPHIMURIUM, Strain/Indicator: TA100, Metabolic Activation: RAT, LIVER, PARENCHYMAL CELLS (FRESHLY ISOLATED OR STORED FOR 1 D OR CRYOPRESERVED), Method: PREINCUBATION): active; positive | mutagenic call (Test System: AMES SALMONELLA TYPHIMURIUM, Strain/Indicator: TA100, Metabolic Activation: RAT, LIVER, S-9, AROCLOR 1254 (2%), Method: STANDARD PLATE): active; positive | mutagenic call (Test System: AMES SALMONELLA TYPHIMURIUM, Strain/Indicator: TA100, Metabolic Activation: RAT, LIVER, S-9, AROCLOR 1254, Method: SPIRAL ASSAY): active; positive | mutagenic call (Test System: AMES SALMONELLA TYPHIMURIUM, Strain/Indicator: TA100, Metabolic Activation: RAT, LIVER, S-9, AROCLOR 1254, Method: STANDARD PLATE): active; positive | mutagenic call (Test System: AMES SALMONELLA TYPHIMURIUM, Strain/Indicator: TA100, Metabolic Activation: RAT, LIVER, S-9, AROCLOR 1254 OR PHENOBARBITOL, Method: STANDARD PLATE): active; positive | mutagenic call (Test System: AMES SALMONELLA TYPHIMURIUM, Strain/Indicator: TA100, Metabolic Activation: RAT, LIVER, S-9, PHENOBARBITAL, Method: STANDARD PLATE): active; positive | mutagenic call (Test System: AMES SALMONELLA TYPHIMURIUM, Strain/Indicator: TA1535 (PSK1002), Metabolic Activation: RAT, LIVER, S-9, AROCLOR 1254, Method: PREINCUBATION): active; positive | mutagenic call (Test System: AMES SALMONELLA TYPHIMURIUM, Strain/Indicator: TA1535, Metabolic Activation: NONE, Method: SPIRAL ASSAY): inactive; negative | mutagenic call (Test System: AMES SALMONELLA TYPHIMURIUM, Strain/Indicator: TA1535, Metabolic Activation: RAT, LIVER, S-9, AROCLOR 1254 (2%), Method: STANDARD PLATE): inactive; negative | mutagenic call (Test System: AMES SALMONELLA TYPHIMURIUM, Strain/Indicator: TA1535, Metabolic Activation: RAT, LIVER, S-9, AROCLOR 1254, Method: SPIRAL ASSAY): active; positive | mutagenic call (Test System: AMES SALMONELLA TYPHIMURIUM, Strain/Indicator: TA1535, Metabolic Activation: RAT, LIVER, S-9, AROCLOR 1254, Method: STANDARD PLATE): active; positive | mutagenic call (Test System: AMES SALMONELLA TYPHIMURIUM, Strain/Indicator: TA1535, Metabolic Activation: RAT, LIVER, S-9, AROCLOR 1254 OR PHENOBARBITOL, Method: STANDARD PLATE): active; positive | mutagenic call (Test System: AMES SALMONELLA TYPHIMURIUM, Strain/Indicator: TA1535, Metabolic Activation: RAT, LIVER, S-9, PHENOBARBITAL, Method: STANDARD PLATE): active; positive | mutagenic call (Test System: AMES SALMONELLA TYPHIMURIUM, Strain/Indicator: TA1537, Metabolic Activation: NONE, Method: SPIRAL ASSAY): inactive; negative | mutagenic call (Test System: AMES SALMONELLA TYPHIMURIUM, Strain/Indicator: TA1537, Metabolic Activation: NONE, Method: STANDARD PLATE): inactive; negative | mutagenic call (Test System: AMES SALMONELLA TYPHIMURIUM, Strain/Indicator: TA1537, Metabolic Activation: RAT, LIVER, S-9, AROCLOR 1254 (2%), Method: STANDARD PLATE): active; positive | mutagenic call (Test System: AMES SALMONELLA TYPHIMURIUM, Strain/Indicator: TA1537, Metabolic Activation: RAT, LIVER, S-9, AROCLOR 1254, Method: SPIRAL ASSAY): active; positive | mutagenic call (Test System: AMES SALMONELLA TYPHIMURIUM, Strain/Indicator: TA1537, Metabolic Activation: RAT, LIVER, S-9, AROCLOR 1254, Method: STANDARD PLATE): active; positive | mutagenic call (Test System: AMES SALMONELLA TYPHIMURIUM, Strain/Indicator: TA1537, Metabolic Activation: RAT, LIVER, S-9, AROCLOR 1254 OR PHENOBARBITOL, Method: STANDARD PLATE): active; positive | mutagenic call (Test System: AMES SALMONELLA TYPHIMURIUM, Strain/Indicator: TA1538, Metabolic Activation: NONE, Method: STANDARD PLATE): inactive; negative | mutagenic call (Test System: AMES SALMONELLA TYPHIMURIUM, Strain/Indicator: TA1538, Metabolic Activation: RAT, LIVER, S-9, AROCLOR 1254, Method: STANDARD PLATE): active; positive | mutagenic call (Test System: AMES SALMONELLA TYPHIMURIUM, Strain/Indicator: TA1538, Metabolic Activation: RAT, LIVER, S-9, AROCLOR 1254 OR PHENOBARBITOL, Method: STANDARD PLATE): active; positive | mutagenic call (Test System: AMES SALMONELLA TYPHIMURIUM, Strain/Indicator: TA1538, Metabolic Activation: RAT, LIVER, S-9, PHENOBARBITAL, Method: STANDARD PLATE): active; positive | mutagenic call (Test System: AMES SALMONELLA TYPHIMURIUM, Strain/Indicator: YG1012, Metabolic Activation: RAT, LIVER, S-9, PHENOBARBITAL AND 5,6-BENZOFLAVONE, Method: PREINCUBATION): active; positive | mutagenic call (Test System: AMES SALMONELLA TYPHIMURIUM, Strain/Indicator: YG1019, Metabolic Activation: RAT, LIVER, S-9, PHENOBARBITAL AND 5,6-BENZOFLAVONE, Method: PREINCUBATION): active; positive | mutagenic call (Test System: AMES SALMONELLA TYPHIMURIUM, Strain/Indicator: YG1020, Metabolic Activation: RAT, LIVER, S-9, PHENOBARBITAL AND 5,6-BENZOFLAVONE, Method: PREINCUBATION): active; positive | mutagenic call (Test System: AMES SALMONELLA TYPHIMURIUM, Strain/Indicator: YG1024, Metabolic Activation: RAT, LIVER, S-9, PHENOBARBITAL AND 5,6-BENZOFLAVONE, Method: PREINCUBATION): active; positive | mutagenic call (Test System: AMES SALMONELLA TYPHIMURIUM, Strain/Indicator: YG1025, Metabolic Activation: RAT, LIVER, S-9, PHENOBARBITAL AND 5,6-BENZOFLAVONE, Method: PREINCUBATION): active; positive | mutagenic call (Test System: AMES SALMONELLA TYPHIMURIUM, Strain/Indicator: YG1029, Metabolic Activation: RAT, LIVER, S-9, PHENOBARBITAL AND 5,6-BENZOFLAVONE, Method: PREINCUBATION): active; positive | mutagenic call (Test System: Ames Salmonella typhimurium, Strain/Indicator: YG7108pin3ERb5, Metabolic Activation: None, Method: Standard plate): active; positive | mutagenic call (Test System: CHINESE HAMSTER OVARY, Strain/Indicator: CHO-K1-BH4 (HGPRT), Metabolic Activation: RAT, LIVER, S-9, AROCLOR, Method: SUSPENSION/PLATE): active; positive | mutagenic call (Test System: E. COLI, Strain/Indicator: WP2 UVRA, Metabolic Activation: NONE, Method: STANDARD PLATE): inactive; negative | mutagenic call (Test System: MOUSE LYMPHOMA, Strain/Indicator: L5178Y (TK+/TK-), Metabolic Activation: NONE, Method: SUSPENSION/PLATE): inactive; negative | mutagenic call (Test System: MOUSE LYMPHOMA, Strain/Indicator: L5178Y (TK+/TK-), Metabolic Activation: RAT, LIVER, S-9, AROCLOR 1254, Method: SUSPENSION/PLATE): active; positive
